Measured values reported in patent US9014457B2, “Quantifying cell death” (UCL Business PLC, priority 2009, dated 2015).
“Also recorded” adds a separate entry of the source. Counter-ions that a name gives are not always drawn. Like-named read-outs stand apart in the source and are kept apart here. Where a SMILES comes first, the peptide text is derived from it. The star is where a group is joined. Cbz = O=C(OCc1ccccc1)*

How the values were obtained:
[1] = tested on: astrocyte cultures (NADPH oxidase); settings: cited from earlier work
RGC [2] = assay: Alzheimer Triple Transgenic (3× Tg-AD) model and aged PS1KI control, retinal cell death imaging; type: in vivo, mouse
Protocol: (§1) For the analysis of Abeta, freshly made Aβ25-35 (Sigma-Aldrich, 3.40 nmol) (Dahlgren et al., 2002) was intravitreally injected into C57 mice (n=10) (Maass et al., 2007). Animals were imaged at 72 hours. For AD 3× Tg-AD studies, 4 eyes (all female, 14 months) with 2 eyes from aged control mice (PS1KI; female, 18 months) were assessed. 3× Tg-AD and control PS1KI mice were obtained from a colony (maintained at CeSI) established after a generous gift of Frank Laferla. Intravitreal phorbol myristate acetate (1 μl of 10 μg/ml) was administered to left eyes of 3× Tg-AD animals, at the same time as annexin V and PI.
(§2) Using a method the inventors have recently described, rats were given 2.5 μg of intravitreal Alexa Fluor 488 labelled annexin V in 5 μl PBS for identification of RGC apoptosis, 2 hours before in vivo imaging (Cordeiro et al., 2004). For mice, the inventors used 1 μl of a 0.25 mg/ml solution of IR-labelled annexin (Annexin-IR) in intravitreal injections as previously described (Schmitz-Valckenberg et al., 2008).
(§3) In order to identify necrotic RGCs in rats (2 μl) and mice (1 μl), propidium iodide (PI; 0.4 mg/ml, 1% solution, Sigma-Aldrich, Dorset UK) was administered intravitreally at the same time as annexin, 2 hours before in vivo imaging. PI intercalates into nucleic acids, binding to double-stranded DNA, but only crosses the plasma membrane of non-viable cells. Cells that have lost membrane integrity are thus identified by fluorescent red PI staining throughout the nuclei.
(§4) In mice, the inventors used instrumentation as previously described (Maass et al., 2007; Schmitz-Valckenberg et al., 2008), with a modified cSLO (Heidelberg Retina Angiograph 2, Heidelberg Engineering, Dossenheim, Germany) and a wide-field lens (55°). The fluorescein angiogram (488 nm argon laser) and indocyanine green (IR 790 nm diode laser) settings were used to detect PI and IR-labelled annexin respectively. The same software was used to analyse video sequenced images as described before with whole retinal monochrome images from each eye recorded and colourised. Dual-color images were produced by combining each of the grayscale images from the cSLO into the red (PI), and green (IR annexin) of an RGB color image.
However, in these studies aged (27 month) wild type congeners were not assessed.
The inventors next investigated whether oxidative stress in AD eyes influenced the phase of cell death and whether this could be visualized in vivo. As intraneuronal Aβ accumulation and extracellular Abeta plaques are characteristics of this model (LaFerla et al., 2007), the inventors hypothesised that the addition of PMA would reveal whether the level of Abeta in this transgenic mouse is sufficient to modulate the retinal response in vivo (Abramov et al., 2005). […]

[3] = tested on: ROS production in the retina; assay: ROS production in mouse retina in vivo visualized with DHE; settings: intravitreal; vs vehicle/control eye
Protocol: FIG. 12B. The effects of rotenone on ROS production in mouse retina in vivo. ROS production visualized with DHE (dihydroethidium). DHE is a non-fluorescent agent, reacting with ROS intracellularly to produce a fluorescent oxidative product which can be detected. Rotenone (50 uM, 1 ul) was intravitreally injected into the one eye (C57) and the same volume of vehicle (saline) injected into the contralateral eye. DHE (1 ul) was then injected intravitreally and both eyes imaged to detect ROS production using a SLO machine.
FIG. 12C. The effects of PMA in producing ROS in mouse retina in vivo. PMA (50 ug/ml, 1 ul) was injected intravitreally into the one eye and saline (1 ul) into the contralateral eye. DHE (1 ul) was simultaneously injected for detecting ROS production.
FIG. 12D. The effects of Aβ25-35 on ROS production in vivo. DHE was intravitreally injected into the both eyes of a mouse to detect ROS production.

RGC [4] = assay: Abeta (Aβ25-35)-induced RGC death model, in vivo cSLO imaging with annexin V and PI; design: species or system mouse
Protocol: as §1, §2, §3, §4
The left eye of each animal was treated with intravitreal 0.40 nmol MK801 at the same time as Abeta. Wide-angle retinal images were recorded 2 hours following intravitreal annexin (green) and PI (red), as previously described (Guo at al., 2006).
To assess the relative levels of early apoptosis, late apoptosis and necrosis the inventors studied the co-localization of PI and annexin V using ImageJ software with the Intensity Correlation Analysis plugin (Li et al., 2004). Colour and raw scatter plots of annexin and PI fluorescence intensity were constructed from plugin-generated data for each animal. Corresponding scatter plots (blue) from the eyes shown in FIG. 8a-b are illustrated in FIG. 8c-d. The data were analysed in a similar manner to data derived by in vitro FACS analysis, with four quadrants (midlines shaded in colour overlay as red, green, blue and yellow) enabling separation of the different phases of cell death as annexin V positive (early apoptosis, green), annexin V and PI double positive (late apoptosis, yellow) and PI positive (necrosis, red). Thresholds were set automatically by the plugin for each analysis of each eye. The inventors then used fluorescence intensity counts from the raw scatter plots to quantify each phase of cell death.
To further assess the analytical power of the technique, the inventors next investigated whether the level of oxidative stress in Abeta-treated eyes influenced the phase of cell death and whether this was possible to visualize in vivo. […] FIG. 8f-g are taken from the right untreated (F) and left PMA-treated (G) eye of an animal treated 72 hours previously with 3.40 nmol Aβ25-35. […]

neuronal cells = settings: in vitro; cited from earlier work
RGC [5] = settings: in vivo; cited from earlier work
[6] = phase III, patients with OAG; cited from earlier work
[7] = tested on: neurons within the contra-lateral Lateral geniculate Body; settings: in vivo; cited from earlier work
[8] = in vivo; cited from earlier work
RGC [9] = settings: in vitro and in vivo; cited from earlier work
RGCs [10] = settings: cited from earlier work
retinal neurons = settings: in vitro; cited from earlier work
RGC [11] = settings: compared with MK-801; cited from earlier work
RGCs [12] = settings: rat; cited from earlier work
RGC [13] = settings: rat, in vivo; cited from earlier work
RGC [14] = settings: in comparison to the controls; cited from earlier work
Bad = settings: in vivo; cited from earlier work
RGCs [15] = settings: in vitro and in vivo; cited from earlier work
NMDA receptors = settings: cited from earlier work
RGC [16] = assay: Chronic ocular hypertensive (OHT) experimental glaucoma model, in vivo imaging with annexin V and PI; design: species or system rat
Source text: For the experimental glaucoma studies, the inventors used an established model of ocular hypertension. 18 rats underwent surgery to elevate intraocular pressure (IOP) by injection of hypertonic saline solution (1.8 M) into two episcleral veins as previously described (Cordeiro et al., 2004). Contralateral, unoperated eyes acted as controls. Animals were imaged at 0, 3, 8, and 16 weeks, with at least 3 animals at each time point being killed for histology immediately after imaging. A subgroup of animals (n=4) was treated at the time of surgery with the NMDA antagonist MK801 (0.6 nmol; Tocris Cookson Ltd, Bristol UK). These animals were imaged at 3 weeks and then killed for histology.
as §2, §3
All rats had in vivo retinal imaging performed at regular and set intervals after experimental treatment, using a prototype Zeiss confocal scanning laser ophthalmoscope (cSLO), as previously described (Cordeiro et al., 2004; Maass et al., 2007). Imaging was performed under general anaesthesia with animals being held in a stereotaxic frame, with their pupils dilated. Different lasers and filters were used for the different fluorochromes: for excitation of Alexa Fluor 488 an Argon laser wavelength of 488 nm, and a solid state photodetector with a 521 nm cut-off filter and a 550 nm cut-on filter was employed; for DiI, a diode-pumped crystal green laser with a wavelength of 532 nm was used with 550 nm cut-off and 600 nm cut-on filters; the same laser was used for PI visualization but with a 650 nm cut-off. […] Colour and raw scatter plots of annexin and PI fluorescence intensity were constructed, so data could be analysed in a similar manner to data derived by in vitro FACS analysis. […] Fluorescence intensity counts derived from raw scatter plots were used to quantify each phase of cell death. […]

[17] = 3 weeks after elevated IOP induction
[18] = Abeta + MK801 vs Abeta alone, 72 h

Compound: CCCCCCCCCCCCCC(=O)O[C@@H]1[C@@H](C)[C@@]2(O)[C@@H](C=C(CO)C[C@]3(O)C(=O)C(C)=C[C@@H]23)[C@@H]2C(C)(C)[C@]12OC(C)=O [PMA, phorbol myristate acetate]
- ROS generation (lucigenin) ([1]; 1 μg/ml): increase
- late apoptosis (Anx+/PI+) (RGC [2]; 3× Tg-AD model, p<0.05): decreased
- increase in early phase apoptosis (Anx+) (RGC [2]; 14-month 3× Tg-AD, 2 hours after intravitreal PMA with annexin and PI): 61.4%
- increase in early phase apoptosis (Anx+) (RGC [2]; aged control (PS1KI, 18 month), 2 hours after intravitreal PMA): 30.3%
- necrosis (RGC [2]; control eyes, p<0.05): decreased
- ROS production in the retina (DHE fluorescence) [3]: significantly higher levels of ROS production
- overall levels of cell death (Total) (RGC [4]; Abeta + PMA vs Abeta, all treated animals, p<0.05): significantly (p<0.05) increases
- number of cells in the early phase of apoptosis (Anx+) (RGC [4]; Abeta + PMA vs Abeta, p<0.05): significantly (p<0.05) increased; also recorded: significant (p<0.05) increase
- annexin V (and PI) positive cells (RGC [4]; PMA 0.016 nmol with annexin V and PI, 72 hours after 3.40 nmol Aβ25-35, imaging 2 hours later, vs vehicle eye): increased

Compound: CC12CC3CC(C)(C1)CC(N)(C3)C2 [memantine, 1-amino-3,5-dimethyl-adamantane]
- NMDA-induced neuronal death (neuronal cells): reduction
- RGC loss (RGC [5]): decreased
- primary end point [6]: ineffective
- shrinkage of neurons (LGB layers 1, 4, and 6) [7]: reduction

Compound: Nc1nc2ccc(OC(F)(F)F)cc2s1 [Riluzole]
- ERG wave recovery [8]: enhance
- pressure-induced apoptosis [8]: prevent or decrease

Compound: superoxide dismutase
- PMA-induced lucigenin response [1]: reversed

Compound: CC(C)C[C@@H](C=O)NC(=O)[C@H](CC(C)C)NC(=O)[C@@H](NC(=O)OCc1ccccc1)C(C)C [Z-VLL-CHO, N-benzyloxycarbonyl-Val-Leu-leucinal] (Cbz-Val-Leu-Leu-aldehyde)
- RGC apoptosis (RGC [9]): reduce

Compound: c1ccc2c(c1)[I+]c1ccccc1-2 [DPI]
- PMA-induced lucigenin response [1]: blocked

Compound: COc1ccc2[nH]cc(CCNC(C)=O)c2c1 [Melatonin]
- effect on RGCs in vivo (RGCs [10]): neuroprotective effect
- protection of retinal neurons (retinal neurons): protected

Compound: O=[N+]([O-])c1cc2nc(O)c(O)nc2cc1[N+](=O)[O-] [DNQX]
- RGC survival (RGC [11]): greater enhancement

Compound: glatiramer acetate [Cop-1]
- activity on RGCs in vivo (RGCs [12]): neuroprotective activity

Compound: Geranylgeranylacetone
- RGC loss (RGC [13]): marked reduction
- expression of HSP-72 (RGC [13]): increase

Compound: C[C@]12N[C@H](Cc3ccccc31)c1ccccc12 [MK801, (+)-5-methyl-10,11-dihydro-5H-dibenzo[a,d]cyclohepten-5,10-imine maleate]
- number of apoptotic RGCs (RGC [14]): reduction
- Bad expression (Bad): decreasing
- RGC protection (RGCs [15]): protect RGCs
- neurotoxicity (NMDA receptors): neurotoxic effect
- late phase apoptosis (Anx+/PI+) (RGC [16]; [17]): significant reduction; also recorded: significant decrease
- levels of necrosis (PI+) (RGC [16]; [17]): significant reduction; also recorded: significant decrease
- number of dying cells (Total cell death markers) (RGC [16]; 3 weeks after elevated IOP induction, p<0.05): significant reduction
- numbers of annexin V and PI positive (apoptotic and necrotic) cells (RGC [16]; MK801 0.6 nmol at the time of surgery, 3 weeks, vs untreated OHT): significantly reduced
- number of annexin V and PI positive cells (RGC [4]; 72 hours after intravitreal 3.40 nmol Aβ25-35, MK801 0.40 nmol intravitreal at the same time as Abeta, vs Abeta-only fellow eye): reduces
- necrosis (PI+) (RGC [4]; [18]): clearly reduced; also recorded: reducing
- number of cells in late phase apoptosis (Anx+/PI+) (RGC [4]; [18]): clearly reduced; also recorded: reducing
- number of early phase apoptotic cells (Anx+) (RGC [4]; [18]): small increase
- overall levels of cell death (Total) (RGC [4]; Abeta + MK801 vs Abeta alone, 72 h, co-localization scatter plot quantification): clearly reduced
